Assay results from the NIST ThermoML archive (doi:10.1016/j.jct.2018.01.024).

Test: mn = molality of the nth substance listed, in mol/kg
Settings: Liquid

NC(N)=O [urea] + O
Settings | mass density [kg/m3]
274.15 K, 101 kPa, Vibrating tube method, m1 = 0.093 | 1001.57
274.15 K, 101 kPa, Vibrating tube method, m1 = 0.1063 | 1001.81
274.15 K, 101 kPa, Vibrating tube method, m1 = 0.141 | 1002.43
274.15 K, 101 kPa, Vibrating tube method, m1 = 0.152 | 1002.62
274.15 K, 101 kPa, Vibrating tube method, m1 = 0.1809 | 1003.14
274.15 K, 101 kPa, Vibrating tube method, m1 = 0.2423 | 1004.22
274.15 K, 101 kPa, Vibrating tube method, m1 = 0.4362 | 1007.6
274.15 K, 101 kPa, Vibrating tube method, m1 = 0.5644 | 1009.79
274.15 K, 101 kPa, Vibrating tube method, m1 = 1.008 | 1017.11
274.15 K, 101 kPa, Vibrating tube method, m1 = 1.609 | 1026.44
274.15 K, 101 kPa, Vibrating tube method, m1 = 2.505 | 1039.26
275.15 K, 101 kPa, Vibrating tube method, m1 = 0.093 | 1001.6
275.15 K, 101 kPa, Vibrating tube method, m1 = 0.1063 | 1001.84
275.15 K, 101 kPa, Vibrating tube method, m1 = 0.141 | 1002.45
275.15 K, 101 kPa, Vibrating tube method, m1 = 0.152 | 1002.64
275.15 K, 101 kPa, Vibrating tube method, m1 = 0.1809 | 1003.16
275.15 K, 101 kPa, Vibrating tube method, m1 = 0.2423 | 1004.23
275.15 K, 101 kPa, Vibrating tube method, m1 = 0.4362 | 1007.59
275.15 K, 101 kPa, Vibrating tube method, m1 = 0.5644 | 1009.77
275.15 K, 101 kPa, Vibrating tube method, m1 = 1.008 | 1017.04
275.15 K, 101 kPa, Vibrating tube method, m1 = 1.609 | 1026.31
275.15 K, 101 kPa, Vibrating tube method, m1 = 2.505 | 1039.07
276.15 K, 101 kPa, Vibrating tube method, m1 = 0.093 | 1001.61
276.15 K, 101 kPa, Vibrating tube method, m1 = 0.1063 | 1001.85
276.15 K, 101 kPa, Vibrating tube method, m1 = 0.141 | 1002.46
276.15 K, 101 kPa, Vibrating tube method, m1 = 0.152 | 1002.65
276.15 K, 101 kPa, Vibrating tube method, m1 = 0.1809 | 1003.16
276.15 K, 101 kPa, Vibrating tube method, m1 = 0.2423 | 1004.22
276.15 K, 101 kPa, Vibrating tube method, m1 = 0.4362 | 1007.56
276.15 K, 101 kPa, Vibrating tube method, m1 = 0.5644 | 1009.73
276.15 K, 101 kPa, Vibrating tube method, m1 = 1.008 | 1016.96
276.15 K, 101 kPa, Vibrating tube method, m1 = 1.609 | 1026.17
276.15 K, 101 kPa, Vibrating tube method, m1 = 2.505 | 1038.86
277.15 K, 101 kPa, Vibrating tube method, m1 = 0.093 | 1001.61
277.15 K, 101 kPa, Vibrating tube method, m1 = 0.1063 | 1001.85
277.15 K, 101 kPa, Vibrating tube method, m1 = 0.141 | 1002.45
277.15 K, 101 kPa, Vibrating tube method, m1 = 0.152 | 1002.64
277.15 K, 101 kPa, Vibrating tube method, m1 = 0.1809 | 1003.15
277.15 K, 101 kPa, Vibrating tube method, m1 = 0.2423 | 1004.2
277.15 K, 101 kPa, Vibrating tube method, m1 = 0.4362 | 1007.52
277.15 K, 101 kPa, Vibrating tube method, m1 = 0.5644 | 1009.67
277.15 K, 101 kPa, Vibrating tube method, m1 = 1.008 | 1016.85
277.15 K, 101 kPa, Vibrating tube method, m1 = 1.609 | 1026.02
277.15 K, 101 kPa, Vibrating tube method, m1 = 2.505 | 1038.66
278.15 K, 101 kPa, Vibrating tube method, m1 = 0.093 | 1001.59
278.15 K, 101 kPa, Vibrating tube method, m1 = 0.1063 | 1001.82
278.15 K, 101 kPa, Vibrating tube method, m1 = 0.141 | 1002.42
278.15 K, 101 kPa, Vibrating tube method, m1 = 0.152 | 1002.61
278.15 K, 101 kPa, Vibrating tube method, m1 = 0.1809 | 1003.12
278.15 K, 101 kPa, Vibrating tube method, m1 = 0.2423 | 1004.17
278.15 K, 101 kPa, Vibrating tube method, m1 = 0.4362 | 1007.46
278.15 K, 101 kPa, Vibrating tube method, m1 = 0.5644 | 1009.6
278.15 K, 101 kPa, Vibrating tube method, m1 = 1.008 | 1016.74
278.15 K, 101 kPa, Vibrating tube method, m1 = 1.609 | 1025.85
278.15 K, 101 kPa, Vibrating tube method, m1 = 2.505 | 1038.42
278.15 K, 101 kPa, Vibrating tube method, m1 = 3.376 | 1049.57
278.15 K, 101 kPa, Vibrating tube method, m1 = 4.33 | 1060.83
278.15 K, 101 kPa, Vibrating tube method, m1 = 5.39 | 1072.16
278.15 K, 101 kPa, Vibrating tube method, m1 = 8 | 1096.24
278.15 K, 101 kPa, Vibrating tube method, m1 = 9.9 | 1110.86
278.15 K, 101 kPa, Vibrating tube method, m1 = 12.8 | 1129.78
278.15 K, 10000 kPa, Constant-volume piezometry, m1 = 0.1809 | 1007.91
278.15 K, 10000 kPa, Constant-volume piezometry, m1 = 0.4362 | 1012.23
278.15 K, 10000 kPa, Constant-volume piezometry, m1 = 0.5644 | 1014.35
278.15 K, 10000 kPa, Constant-volume piezometry, m1 = 1.609 | 1030.49
278.15 K, 10000 kPa, Constant-volume piezometry, m1 = 2.505 | 1042.94
278.15 K, 10000 kPa, Constant-volume piezometry, m1 = 3.376 | 1053.98
278.15 K, 10000 kPa, Constant-volume piezometry, m1 = 5.39 | 1076.38
278.15 K, 10000 kPa, Constant-volume piezometry, m1 = 8 | 1100.31
278.15 K, 10000 kPa, Constant-volume piezometry, m1 = 10.99 | 1122.33
278.15 K, 10000 kPa, Constant-volume piezometry, m1 = 12.8 | 1133.68
278.15 K, 25000 kPa, Constant-volume piezometry, m1 = 0.1809 | 1014.96
278.15 K, 25000 kPa, Constant-volume piezometry, m1 = 0.4362 | 1019.23
278.15 K, 25000 kPa, Constant-volume piezometry, m1 = 0.5644 | 1021.32
278.15 K, 25000 kPa, Constant-volume piezometry, m1 = 1.609 | 1037.26
278.15 K, 25000 kPa, Constant-volume piezometry, m1 = 2.505 | 1049.56
278.15 K, 25000 kPa, Constant-volume piezometry, m1 = 3.376 | 1060.45
278.15 K, 25000 kPa, Constant-volume piezometry, m1 = 5.39 | 1082.6
278.15 K, 25000 kPa, Constant-volume piezometry, m1 = 8 | 1106.3
278.15 K, 25000 kPa, Constant-volume piezometry, m1 = 10.99 | 1128.15
278.15 K, 25000 kPa, Constant-volume piezometry, m1 = 12.8 | 1139.4
278.15 K, 50000 kPa, Constant-volume piezometry, m1 = 0.1809 | 1026.22
278.15 K, 50000 kPa, Constant-volume piezometry, m1 = 0.4362 | 1030.39
278.15 K, 50000 kPa, Constant-volume piezometry, m1 = 0.5644 | 1032.44
278.15 K, 50000 kPa, Constant-volume piezometry, m1 = 1.609 | 1048.03
278.15 K, 50000 kPa, Constant-volume piezometry, m1 = 2.505 | 1060.07
278.15 K, 50000 kPa, Constant-volume piezometry, m1 = 3.376 | 1070.75
278.15 K, 50000 kPa, Constant-volume piezometry, m1 = 5.39 | 1092.51
278.15 K, 50000 kPa, Constant-volume piezometry, m1 = 8 | 1115.83
278.15 K, 50000 kPa, Constant-volume piezometry, m1 = 10.99 | 1137.36
278.15 K, 50000 kPa, Constant-volume piezometry, m1 = 12.8 | 1148.51
278.15 K, 75000 kPa, Constant-volume piezometry, m1 = 0.1809 | 1036.88
278.15 K, 75000 kPa, Constant-volume piezometry, m1 = 0.4362 | 1040.96
278.15 K, 75000 kPa, Constant-volume piezometry, m1 = 0.5644 | 1042.96
278.15 K, 75000 kPa, Constant-volume piezometry, m1 = 1.609 | 1058.21
278.15 K, 75000 kPa, Constant-volume piezometry, m1 = 2.505 | 1069.97
278.15 K, 75000 kPa, Constant-volume piezometry, m1 = 3.376 | 1080.48
278.15 K, 75000 kPa, Constant-volume piezometry, m1 = 5.39 | 1101.91
278.15 K, 75000 kPa, Constant-volume piezometry, m1 = 8 | 1124.88
278.15 K, 75000 kPa, Constant-volume piezometry, m1 = 10.99 | 1146.09
278.15 K, 75000 kPa, Constant-volume piezometry, m1 = 12.8 | 1157.08
278.15 K, 100000 kPa, Constant-volume piezometry, m1 = 0.1809 | 1046.98
278.15 K, 100000 kPa, Constant-volume piezometry, m1 = 0.4362 | 1050.97
278.15 K, 100000 kPa, Constant-volume piezometry, m1 = 0.5644 | 1052.94
278.15 K, 100000 kPa, Constant-volume piezometry, m1 = 1.609 | 1067.87
278.15 K, 100000 kPa, Constant-volume piezometry, m1 = 2.505 | 1079.44
278.15 K, 100000 kPa, Constant-volume piezometry, m1 = 3.376 | 1089.73
278.15 K, 100000 kPa, Constant-volume piezometry, m1 = 5.39 | 1110.78
278.15 K, 100000 kPa, Constant-volume piezometry, m1 = 8 | 1133.5
278.15 K, 100000 kPa, Constant-volume piezometry, m1 = 10.99 | 1154.43
278.15 K, 100000 kPa, Constant-volume piezometry, m1 = 12.8 | 1165.23
279.15 K, 101 kPa, Vibrating tube method, m1 = 0.093 | 1001.56
